Data on 1 compound can be found in patent publication US20110152092A1, “Herbicidal compositions comprising flufenacet” (Bayer CropScience AG, priority 2009, published 2011).

SMILES strings stand for the structures.

In the assay the test system is ALOMY. As to the kind of experiment: Greenhouse trial, PE application on sensitive and resistant biotypes (test method 8). The assay is classed as in vivo, Alopecurus myosuroides. To be noted: g of AS/ha: (A) 90, (B) 1200, (C) 90, mixture 90 + 1200 + 90, iodosulfuron 10. The method, then: In the standard design of the test, seeds of various broad-leaved weed and weed grass biotypes (origins) were sown in a 8-13 cm diameter pot filled with natural soil of a standard field soil (loamy silt; non-sterile) and covered with a covering soil layer of about 1 cm. The pots were then cultivated in a greenhouse (12-16 h of light, temperature day 20-22° C., night 15-18° C.) until the time of application. The pots were treated on a laboratory track sprayer with spray liquors comprising the compositions according to the invention, mixtures of the prior art or components used individually. Application of the active compounds or active compound combinations formulated as WG, WP, EC or otherwise was carried out at the appropriate growth stages of the plants. The application rate for the spray application was 100-600 l of water/ha. After the treatment, the plants were returned to the greenhouses.
About 3 weeks after the application, the soil action or/and foliar action was assessed visually according to a scale of 0-100% in comparison to an untreated comparative group: 0%=no noticeable effect compared to the untreated comparative group; 100%=full effect compared to the untreated comparative group.
(notes: the term “seeds” also includes vegetative propagation forms such as, for example, rhizome pieces; abbreviations used: h light=hours of illumination, g of AS/ha=gram of active substance per hectare, l/ha=liter per hectare, S=sensitive, R=resistant) • 1. Pre-emergence action against weeds: seeds of various broad-leaved weed and weed grass biotypes (origins) were sown in a 8-13 cm diameter pot filled with natural soil of a standard field soil (loamy silt; non-sterile) and covered with a covering soil layer of about 1 cm. The pots were then cultivated in a greenhouse (12-16 h of light, temperature day 20-22° C., night 15-18° C.) until the time of application. The pots were treated at the BBCH stage 00-10 of the seeds/plants on a laboratory track sprayer with spray liquors comprising the compositions according to the invention, mixtures or components used individually, as WG, WP, EC or other formulations. The application rate for the spray application was 100-600 l of water/ha. After the treatment, the plants were returned to the greenhouses and, when required, treated with fertilizer and watered. • 2. Post-emergence action against weeds: seeds of various broad-leaved weed and weed grass biotypes (origins) were sown in a 8-13 cm diameter pot filled with natural soil of a standard field soil (loamy silt; non-sterile) and covered with a covering soil layer of about 1 cm. The pots were then cultivated in a greenhouse (12-16 h of light, temperature day 20-22° C., night 15-18° C.) until the time of application. The pots were treated at various BBCH stages between 11-25 of the seeds/plants, i.e. generally between two to three weeks after the start of the cultivation, on a laboratory track sprayer with spray liquors comprising the compositions according to the invention, mixtures or components used individually, as WG, WP, EC or other formulations. The application rate for the spray application was 100-600 l of water/ha. After the treatment, the plants were returned to the greenhouses and, when required, treated with fertilizer and watered. • 3. Selective pre-emergence action: seeds of various crop species (origins) were sown in a 8-13 cm diameter pot filled with natural soil of a standard field soil (loamy silt; non-sterile) and covered with a covering soil layer of about 1 cm. The pots were then cultivated in a greenhouse (12-16 h of light, temperature day 20-22° C., night 15-18° C.) until the time of application. The pots were treated at the BBCH stage 00-10 of the seeds/plants on a laboratory track sprayer with spray liquors comprising the compositions according to the invention, mixtures or components used individually, as WG, WP, EC or other formulations. The application rate for the spray application was 100-600 l of water/ha. […]

Consider `COc1nc(C)nc(NC(=O)NS(=O)(=O)c2cc(I)ccc2C(=O)O)n1` [C)^1 iodosulfuron, iodosulfuron], for which, where the note is “resistant biotype”, the “activity ALOMY resistant (visual, scale 0-100%)” value is 50%. Moreover, the “activity ALOMY sensitive (visual, scale 0-100%)” value (sensitive biotype) stood at 98%.
